The record followed here is article PMC2697320, “Identification of the high affinity binding site in the Streptococcus intermedius toxin intermedilysin for its membrane receptor, the human complement regulator CD59” (Molecular Immunology, 2009).

Broadly, the Kd is a measure of binding affinity in units of concentration.

One data set concerns human erythrocytes. The experiment in a line: Hemolytic assay for complement (C) activity, antibody-sensitised human erythrocytes. Format: cell-based. The conditions noted are these: at the dilutions used in these assays. How it is done: Hemolytic assays for C activity were performed using human erythrocytes sensitised with an in-house rabbit polyclonal antiserum against human CD55 as described ([Cole et al., 2006]). Sensitised erythrocytes (2% in CFD; 50 μl/well) were incubated for 30 min with various dilutions of human serum in CFD in the absence or presence of test peptides or blocking anti-CD59 antibodies. Plates were centrifuged and percent lysis calculated as above. Statistical analyses were carried out using unpaired Student's t-tests.

Another data set deals with T1, CD59 (Homo sapiens, UniProt P13987).
T1 construct: Recombinant soluble CD59 comprising amino acids 1–76 with an 11 amino acid Ser/Gly linker; made in house
T1 sequence (P13987 26-101): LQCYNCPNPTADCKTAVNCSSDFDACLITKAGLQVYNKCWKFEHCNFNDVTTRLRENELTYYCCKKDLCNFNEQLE
As to the kind of experiment: biochemical. Format: binding. The conditions noted are these: SPR steady state, immobilised CD59, 25 °C; read-out: KD, printed in Fig. 3C.

Where no end group is shown, it is not given here.

Description for CD59: All surface plasmon resonance (SPR) analyses were carried out on a Biacore T100 (Biacore International SA, Stevenage, UK). Proteins were coupled to the sensor chip surface using thiol-based coupling chemistry. Briefly, recombinant CD59 was subjected to mild reduction for 16 h at 20 °C using TCEP at a molar ratio TCEP:CD59 of 3:1 [120 μm:40 μM] to reduce the terminal Cys residue while leaving internal disulphide bonds intact. An S-series CM5 carboxy-dextran coated chip was then activated using NHS/EDC (N-hydroxysuccinimide/1-ethyl-3(3-dimethyl aminopropyl)-carbodiimide hydrochloride) according to the manufacturer's protocol. The activated surface was further modified by flowing 80 mM 2-(2-pyridinyldithio)-ethaneamine hydrochloride (PDEA) in 0.1 M sodium borate (pH 8.5) to introduce reactive disulphide groups into the matrix. Reduced CD59 was flowed over this surface at pH 3.4 (10 mM NaCitrate) and coupling through the free amino-terminal thiol in the reduced CD59 monitored in real time. Blocking of residual activated residues was achieved by flowing 50 mM L-cysteine in 100 mM NaAcetate pH 4 containing 1 M NaCl. […] For all kinetic analyses, data were collected at 25 °C at a flow rate of 30 μl/min. […] Interactions were analysed in HBS containing 0.05% surfactant P20 and 3 mM EDTA. Data were evaluated using Biacore T100 Evaluation software.

Turning to GLAWEPWRLIYSKNDLPLVPC [ILY peptide], in the data set with human erythrocytes, the “lysis by peptide itself above background” value is given as “neither “sense” nor jumbled peptide caused any lysis above background”. Moreover, the Kd on CD59 was 4.92 µM.
